Data from paper PMC10714399, “Open Source Antibiotics: Simple Diarylimidazoles Are Potent against Methicillin-Resistant Staphylococcus aureus” (ACS Infectious Diseases, 2023).
Converted amounts (≈) assume the structure as drawn. Like-named read-outs stand apart in the source and are kept apart here.

Legend:
[1] = test system: VSE; experiment: In vitro antibacterial activity, MIC, VSE; type: cell-based
[2] = test system: Staphylococcus aureus ATCC 43300 MRSA; experiment: CO-ADD antibacterial assay (growth inhibition, MIC), MRSA; type: cell-based; details: read-out: MRSA MIC (CO-ADD)
Experimental: Hit Confirmation of active compounds by whole cell growth inhibition assays was conducted as an 8-point dose response to determine the Minimum Inhibitory Concentration (MIC), in duplicate (n=2). The inhibition of growth is measured against those microorganisms that […]
Included in the Hit Confirmation were 5 bacteria: Escherichia coli, Klebsiella pneumoniae, Acinetobacter baumannii, Pseudomonas aeruginosa and Staphylococcus aureus, and 2 fungi Candida albicans and Cryptococcus neoformans. […]
Assay Parameters Bacteria Fungi HEK293 Haemolysis […]
Duplicate (n=2) Duplicate (n=2) Duplicate (n=2) Duplicate (n=2)
QC Control MIC: Control MIC: Control CC50: Control HC10:
Non-Binding Non-Binding TC, 384-well Polypropylene
Plates Surface (NBS), Surface (NBS), black wall/clear 384-well and 384-well plate 384-well plate bottom polystyrene 384-
Cation-adjusted Yeast Nitrogen DMEM
Media Mueller Hinton Base supplemented 0.9% NaCl
Hit Confirmation outcomes are detailed in individual Project reports, personalised for each Project Submission for each CO-ADD user.
Please see your data sheet with file extension P0XXX_HC_data.xlsx, for example CO-ADD Project P0100, P0100_HC_data.xlsx
Study: HC_data ID: HC-Procedures & Materials
Date: Last updated June 2018 Confidential Page 3 of 11
(§1) (1 picture or pasted object on this page, not shown here)
Samples were provided by the collaborator and stored frozen at -20 °C. Samples were prepared in DMSO and water to a final testing concentration of 32 µg/mL or 20 µM (unless otherwise indicated in the data sheet) and serially diluted 1:2 fold for 8 times. Each sample concentration was prepared in 384-well plates, non-binding surface plate (NBS; Corning 3640) for each bacterial/fungal strain, tissue-culture treated (TC-treated; Corning 3712/3764) black for mammalian cell types and polypropylene 384-well (PP; Corning 3657) for haemolysis assays, all in duplicate (n=2), and keeping the final DMSO concentration to a maximum of 0.5%. All the sample preparation was done using liquid handling robots. […]
detailed in the Data sheet for the individual Project.
All bacteria were cultured in Cation-adjusted Mueller Hinton broth (CAMHB) at 37 °C overnight. A sample of each culture was then diluted 40-fold in fresh broth and incubated at 37 °C for 1.5-3 h. The resultant mid-log phase cultures were diluted (CFU/mL measured by OD600), then added to each well of the compound containing plates, giving a cell density of 5×10^5 CFU/mL and a total volume of 50 µL. All the plates were covered and incubated at 37 °C for 18 h without shaking.
Inhibition of bacterial growth was determined measuring absorbance at 600 nm (OD600), using a Tecan M1000 Pro monochromator plate reader. The percentage of growth inhibition was calculated for each well, using the negative control (media only) and positive control (bacteria without inhibitors) on the same plate as references.
The percentage of growth inhibition was calculated for each well, using the negative control (media only) and positive control (bacteria without inhibitors) on the same plate. The MIC […]
by an inhibition ≥ 80%. In addition, the maximal percentage of growth inhibition is reported as DMax, indicating any compounds with partial activity.
Date: Last updated June 2018 Confidential Page 5 of 11
Material Code Brand/Supplier Cat No.
Compound preparation plate, Polypropylene PP Corning 3364
Assay Plates – Antimicrobial
Non-binding surface NBS 384w Corning 3640
Assay Plates – Cytotoxicity
Tissue culture treated Black/Clear bottom 384w Corning 3712
Assay Plates - Haemolysis PP-Haem Corning 3657 […]
Growth media - bacteria CAMHB Bacto Laboratories 212322
Culture agar - fungi YPD Becton Dickinson 242720
Growth media - fungi YNB Becton Dickinson 233520
Resazurin Sigma-Aldrich R7017
Dulbecco's Modified Eagle Medium DMEM Life Technologies 11995-073
Foetal Bovine Serum FBS Bovogen FFBS-500
0.9% NaCl Saline Baxter AHF7124
Sample Name Sample ID MW Conc. Solvent Source […]

[3] = LogD7.4 (Chrom Log D); type: physicochemical; details: chromatographic system (Chrom Log D); pH 7.4, NEU; read-out: LogD 7.4 (NEU)
[4] = Rat hepatocyte intrinsic clearance; type: in vitro ADME; details: rat hepatocytes, NEU; read-out: Rat Hep CLint (NEU)
[5] = Distribution coefficient estimation using chromatography, gLogD (Monash); type: physicochemical; details: gradient HPLC retention against standard compounds, pH 7.4
Text: Partition coefficient values (LogD) of the test compounds were estimated at pH 7.4 by the correlation of their chromatographic retention properties against the characteristics of a series of standard compounds with known partition coefficient values. The method employed is a gradient HPLC-based derivation of the method developed by Lombardo.[42] […]
c) Distribution Coefficient Estimation using Chromatography (gLogDpH)
Partition coefficient values (LogD) of the test compounds were estimated at pH 7.4 by correlation of their
chromatographic retention properties against the characteristics of a series of standard compounds with known
partition coefficient values. […]
In Vitro Intrinsic Clearance […]
Experimental results are tabulated on the following page(s).
as §1

[6] = Mouse liver microsome (MLM) metabolic stability (UNC); type: in vitro ADME
Text: Supplement id3c00286_si_002.xlsx, sheet "Series 2 Data" | column: MLM Clint (mL/min/kg) (UNC); MLM t1/2 (min) (UNC); MLM E (UNC)

SMILES | MIC ([1]; read-out: VSE MIC) [µg/mL] | MIC [2] [µg/mL] | chromatographic logD [3] | hepatocyte CLint [4] [µL/min/1e6 cells] | chromatographic logD [5] | MIC ([1]; read-out: VSE MIC (UCL)) [µg/mL] | MLM E (UNC) ([6]; mouse liver microsomes) | CLint scaled ([6]; mouse, liver microsomes) [mL/min/kg] | half-life ([6]; mouse, liver microsomes, read-out: MLM t1/2 (UNC)) [min]
c1ccc(-c2nc3n(c2-c2ccc4sccc4c2)CCC3)nc1 [compound 822] | 4 (≈ 12.6 µM) | – | – | – | – | – | – | – | –
c1ccc(-c2nc3n(c2-c2ccc4occc4c2)CCC3)nc1 [compound 821] | – | 4 (≈ 13.3 µM) | 2.7 | 13.6 | – | – | – | – | –
c1ccc(-c2nc3n(c2-c2ccc4sccc4c2)CCC3)nc1 [OSA_000822] | – | 2 (≈ 6.3 µM) | – | > 300 | 2.3 | 4 (≈ 12.6 µM) | 0.929 | 1170 | 4.8
